Measured values from patent US20070179161A1, “Pyrazolopyrimidine compounds and their use in medicine” (VERNALIS (CAMBRIDGE) LIMITED., priority 2003, published 2007).
Where two headings read alike, the source gives them in different places.

Legend:
PDK1 enzyme = biological target: T1, PDK1 enzyme (Homo sapiens, UniProt O15530); test: PDK1 kinase inhibition assay (33P phosphorylation of synthetic peptide, filter plate); type: biochemical; conditions: 0.01 mM ATP, 60 min at 30° C.; read-out: PDK1 IC50
T1 sequence (O15530 1-556): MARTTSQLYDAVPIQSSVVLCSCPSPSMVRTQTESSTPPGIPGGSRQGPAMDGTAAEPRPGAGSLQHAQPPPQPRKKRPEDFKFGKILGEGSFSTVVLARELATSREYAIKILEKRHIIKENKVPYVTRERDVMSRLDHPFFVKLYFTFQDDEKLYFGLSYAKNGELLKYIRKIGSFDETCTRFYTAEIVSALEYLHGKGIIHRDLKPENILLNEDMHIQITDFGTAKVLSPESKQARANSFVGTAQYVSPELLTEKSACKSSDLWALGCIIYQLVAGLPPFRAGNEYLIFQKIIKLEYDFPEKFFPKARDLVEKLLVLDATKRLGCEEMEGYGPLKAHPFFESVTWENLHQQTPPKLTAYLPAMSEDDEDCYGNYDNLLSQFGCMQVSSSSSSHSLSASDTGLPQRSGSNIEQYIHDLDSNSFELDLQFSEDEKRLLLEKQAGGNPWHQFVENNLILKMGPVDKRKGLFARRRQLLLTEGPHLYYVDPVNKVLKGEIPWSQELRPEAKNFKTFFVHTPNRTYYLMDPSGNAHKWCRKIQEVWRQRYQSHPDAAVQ
How it was run: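 PDK1 and inhibitor incubated 60 min at 30° C with 0.01 mM ATP plus 33P-γ-ATP, 0.075 mM peptide, 7.5 mM Mg acetate, 0.1 mg/ml BSA in 0.05 M Tris.HCl pH 7.5. Stopped with phosphoric acid; phosphorylated peptide captured on filter plate and counted by scintillation.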

GST-Chk1 enzyme = biological target: T2, GST-Chk1 enzyme (Homo sapiens, UniProt O14757); test: Chk1 kinase inhibition assay (33P phosphorylation of Chktide, filter plate); type: biochemical; conditions: 0.01 mM ATP, 11 nM GST-Chk1, 40 minutes at 30° C.; read-out: Chk1 IC50
T2 sequence (O14757 1-476): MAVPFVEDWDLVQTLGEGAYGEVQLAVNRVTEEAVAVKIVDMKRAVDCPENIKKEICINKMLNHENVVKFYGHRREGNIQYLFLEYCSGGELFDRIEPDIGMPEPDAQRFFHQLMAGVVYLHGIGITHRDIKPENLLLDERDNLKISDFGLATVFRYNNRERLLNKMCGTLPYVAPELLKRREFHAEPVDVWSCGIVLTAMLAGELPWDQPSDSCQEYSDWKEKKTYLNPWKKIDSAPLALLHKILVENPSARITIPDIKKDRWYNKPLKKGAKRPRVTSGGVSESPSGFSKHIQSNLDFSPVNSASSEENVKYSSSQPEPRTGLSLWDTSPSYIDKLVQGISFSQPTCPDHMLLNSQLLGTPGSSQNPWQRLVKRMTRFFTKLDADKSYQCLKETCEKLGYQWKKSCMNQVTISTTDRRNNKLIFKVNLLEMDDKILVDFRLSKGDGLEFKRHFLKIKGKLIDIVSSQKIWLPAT
How it was run: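 Inhibitor and enzyme reacted 40 min at 30 °C, then stopped with 50 mM phosphoric acid. Phosphorylated peptide captured on filter plates and quantified by scintillation counting.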

[1] = biological target: CDK-2 enzyme, complexed with cyclin A (Homo sapiens, UniProt P24941); test: CDK2 enzyme inhibition assay (33P phosphorylation of peptide […], filter plate); type: biochemical; conditions: CDK-2/cyclin A, 0.1 mM ATP, 40 min at 30° C.
How it was run: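 Cyclin A–complexed CDK2 (0.4 U/ml) incubated with inhibitor, 0.03 mM peptide, 0.1 mM ATP plus 33P-γ-ATP in HEPES pH 7.5, 7.5 mM Mg acetate, 0.1 mg/ml BSA, 40 min at 30 °C. Stopped with phosphoric acid; phosphorylated peptide captured on filter plates and counted by scintillation.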

[2] = Cell growth inhibition assay: cytotoxicity by sulforhodamine B (SRB) assay; type: cell-based; conditions: 96 h
Procedure: B. Cell Growth Inhibition Assay:
• 1) Determine cell number by haemocytometer. • 2) Using an 8 channel multipipettor, add 160 μl of the cell suspension ([…] or 2×10^4 cells/ml) to each well of a 96-well microtitre plate. • 3) Incubate overnight at 37° C. in a CO2 incubator. Day 2 • 4) Stock solutions of drugs are prepared, and serial dilutions of each drug are performed in medium to give final concentrations in wells. • 5) Using a multipipettor, 40 μl of drug (at 5× final concentration) is added to quadruplicate wells. • 6) Control wells are at either side of the 96 well plates, where 40 μl of medium is added. • 7) Incubate plates in CO2 incubator for 4 days Day 6 • 8) Tip off medium into sink and immerse plate slowly into 10% ice cold trichloroacetic acid (TCA). Leave for about 30 mins on ice. • 9) Wash plates three times in tap water by immersing the plates into baths of tap water and tipping it off. • 10) Dry in incubator. • 11) Add 100 μl of 0.4% SRB in 1% acetic acid to each well (except the last row right hand)of the 96 well plate, this is the 0% control, ie no drug, no stain. The first row will be the 100% control with no drug, but with stain). Leave for 5 mins. • 12) Wash off unbound SRB stain with four washes of 1% acetic acid. • 13) Dry plates in incubator. • 14) Solubilise SRB using 100 μl of 10 mM Tris base and put plates on plate shaker for 5 mins. • 15) Determine absorbance at 540 nm using a plate reader. Calculate mean absorbance for quadruplicate wells and express as a percentage of value for control, untreated wells.
Plot % absorbance values versus log drug concentration and determine the IC50.

[3] = SRB assay, 4 days with drug, cell line not named, read-out: GI50

| IC50 (PDK1 enzyme) | IC50 (GST-Chk1 enzyme) | IC50 [1] | Structure (SMILES) | GI50 [2, 3] | GI50 [2] |
| --- | --- | --- | --- | --- | --- |
| 3.24 µM | 2.14 µM | 0.009 µM | N[C@H]1CC[C@H](Nc2cc(Nc3cccc(Cl)c3)n3ncc(Cl)c3n2)CC1 [Example 192] | 0.2 µM | – |
| – | – | 0.055 µM | CSc1cnn2c(Nc3ccc(S(=O)(=O)N(C)C)cc3)cc(N[C@H]3CC[C@H](N)CC3)nc12 [Example 197] | 0.58 µM | – |
| 109 µM | 1 µM | 0.101 µM | N[C@H]1CC[C@H](Nc2cc(Nc3ccc(Oc4ccccc4)cc3)n3ncc(Br)c3n2)CC1 [Example 181] | 0.09 µM | – |
| – | – | 0.018 µM | N[C@H]1CC[C@H](Nc2cc(Nc3ccc(Oc4cncc(Cl)c4)cc3)n3ncc(Cl)c3n2)CC1 [Example 191] | 0.04 µM | – |
| 4.48 µM | 2.08 µM | 0.018 µM | CSc1cnn2c(Nc3ccc(Oc4cncc(Cl)c4)cc3)cc(N[C@H]3CC[C@H](N)CC3)nc12 [Example 198] | 0.31 µM | – |
| > 200 µM | 0.63 µM | 1.42 µM | CN(C)S(=O)(=O)c1ccc(Nc2cc(N[C@H]3CC[C@H](N)CC3)nc3c(-c4ccsc4)cnn23)cc1 [Example 154] | – | – |
| > 200 µM | > 200 µM | 1.16 µM | CC(C)COc1cc(Nc2ccc(S(=O)(=O)N(C)C)cc2)n2ncc(C(C)C)c2n1 [Example 40] | – | – |
| > 200 µM | > 200 µM | 10.5 µM | CC(C)c1cnn2c(Nc3ccc(S(=O)(=O)N(C)C)cc3)cc(N3CCCC(C(=O)N(C)C)C3)nc12 (centres unmarked) [Example 92] | – | – |
| > 200 µM | > 200 µM | 0.066 µM | CC(=O)N[C@H]1CC[C@H](Nc2cc(Nc3ccc(S(=O)(=O)N(C)C)cc3)n3ncc(C(C)C)c3n2)CC1 [Example 79] | – | – |
| 0.325 µM | 1.27 µM | 0.008 µM | CN(C)S(=O)(=O)c1ccc(Nc2cc(N[C@H]3CC[C@H](N)CC3)nc3c(Br)cnn23)cc1 [Example 31, 3-bromo-5-(trans-4-aminocyclohexylamino)-7-(4-(N,N-dimethylsulphonamido)phenylamino)pyrazolo[1,5-a]pyrimidine] | – | – |
| 2.88 µM | 1.47 µM | 0.047 µM | N[C@H]1CC[C@H](Nc2cc(Nc3ccc(Sc4cccs4)cc3)n3ncc(Cl)c3n2)CC1 [Example 193] | – | – |
| > 200 µM | > 200 µM | 1.32 µM | CS(=O)(=O)c1ccc(Nc2cc(OC3CCCCC3)nc3ccnn23)cc1 [Example 21] | – | – |
| > 200 µM | > 200 µM | 0.062 µM | CC(C)c1cnn2c(Nc3ccc(S(N)(=O)=O)cc3)cc(Cl)nc12 [Example 32] | – | – |
| > 200 µM | > 200 µM | 0.99 µM | O=S(=O)(c1ccc(Nc2cc(Cl)nc3ccnn23)cc1)N1CCOCC1 [Example 9] | – | – |
| > 200 µM | > 200 µM | 9.3 µM | CC(C)c1cnn2c(Nc3ccc(S(=O)(=O)N(C)C)cc3)cc(C(=O)NCCN3CCOCC3)nc12 [Example 121] | – | – |
| > 200 µM | 27 µM | 0.07 µM | CN(C)S(=O)(=O)c1cccc(Nc2cc(N[C@H]3CC[C@H](N)CC3)nc3c(Br)cnn23)c1 [Example 94] | – | – |
| > 200 µM | > 200 µM | 0.259 µM | CCN(CC)c1cc(Nc2ccc(S(=O)(=O)N(C)CCO)cc2)n2ncc(C(C)C)c2n1 [Example 51] | – | – |

| IC50 (PDK1 enzyme) | IC50 (GST-Chk1 enzyme) | IC50 [1] | Structure (SMILES) | GI50 [2, 3] | GI50 [2] |
| --- | --- | --- | --- | --- | --- |
| > 200 µM | > 200 µM | 7.89 µM | CCNC(=O)c1cc(Nc2ccc(S(=O)(=O)N(C)C)cc2)n2ncc(C(C)C)c2n1 [Example 115] | – | – |
| > 200 µM | > 200 µM | 0.124 µM | COCCN(C)S(=O)(=O)c1ccc(Nc2cc(Cl)nc3c(C(C)C)cnn23)cc1 [Example 96] | – | – |
| 29.3 µM | > 200 µM | 0.005 µM | CN(C)S(=O)(=O)c1ccc(Nc2cc(Cl)nc3c(C4CC4)cnn23)cc1 [Example 127] | – | – |
| 24.6 µM | > 200 µM | 0.59 µM | O=S(=O)(Nc1nccs1)c1ccc(Nc2cc(OC3CCCCC3)nc3ccnn23)cc1 [Example 14] | – | – |
| > 200 µM | > 200 µM | 0.271 µM | CC(C)c1cnn2c(Nc3ccc(S(=O)(=O)N4CCC(O)CC4)cc3)cc(Cl)nc12 [Example 33] | – | – |
| – | 4.19 µM | 0.36 µM | CN(C)S(=O)(=O)c1ccc(Nc2cc(O[C@H]3CCNC3)nc3c(Cl)cnn23)cc1 [Example 196] | 1 µM | – |
| > 200 µM | > 200 µM | 0.727 µM | CCc1cnn2c(Nc3ccc(S(C)(=O)=O)cc3)ccnc12 [Example 47] | – | – |
| > 200 µM | > 200 µM | 0.419 µM | CCN(CC)C(=O)COc1cc(Nc2ccc(S(=O)(=O)N(C)C)cc2)n2ncc(C(C)C)c2n1 [Example 88] | – | – |
| 109 µM | > 200 µM | 0.076 µM | CNS(=O)(=O)c1ccc(Nc2cc(Cl)nc3c(C(C)C)cnn23)cc1 [Example 46] | – | – |
| 6 µM | 1.53 µM | 10 µM | CN(C)S(=O)(=O)c1ccc(Nc2cc(N[C@H]3CC[C@H](N)CC3)nc3c(-c4ccccc4)cnn23)cc1 [Example 163] | – | – |
| > 200 µM | > 200 µM | 7.19 µM | Cc1cccc(-c2cc(NCc3ccncc3)n3nccc3n2)c1 [Example 7] | – | – |
| > 200 µM | > 200 µM | 0.14 µM | CC[C@H](CO)Nc1cc(Nc2ccc(S(=O)(=O)N(C)C)cc2)n2ncc(C(C)C)c2n1 [Example 83] | – | – |
| > 200 µM | > 200 µM | 0.128 µM | CN(C)S(=O)(=O)c1ccc(Nc2cc(Cl)nc3c(Br)cnn23)cc1 [Example 76] | – | – |
| 9.49 µM | > 200 µM | 0.039 µM | CC(C)c1cnn2c(Nc3ccc(S(=O)(=O)NCCN(C)C)cc3)cc(Cl)nc12 [Example 77] | – | – |
| > 200 µM | > 200 µM | 3.96 µM | Oc1ccc(-c2cc(Nc3cccc(Cl)c3)n3nccc3n2)cc1 [Example 5] | – | – |
| > 200 µM | > 200 µM | 3.14 µM | CCNc1cc(Nc2ccc(S(=O)(=O)N(C)C)cc2)n2ncc(C(C)C)c2n1 [Example 108] | – | – |
| 9 µM | 13 µM | 0.142 µM | CC(C)c1cnn2c(Nc3ccc(S(=O)(=O)N(C)C)cc3)cc(N[C@H]3CC[C@H](NC(N)=O)CC3)nc12 [Example 141] | – | – |

| Structure (SMILES) | IC50 (PDK1 enzyme) | IC50 (GST-Chk1 enzyme) | IC50 [1] | GI50 [2, 3] | GI50 [2] |
| --- | --- | --- | --- | --- | --- |
| CN(C)S(=O)(=O)c1ccc(Nc2cc(N[C@H]3CC[C@H](N)CC3)nc3c(Br)cnn23)cc1Cl [Example 180] | 2 µM | 0.83 µM | 0.002 µM | – | 0.33 µM |
